Results as given in publication PMC6005341, “Identification of “sarsasapogenin-aglyconed” timosaponins as novel Aβ-lowering modulators of amyloid precursor protein processing” (Chemical Science, 2016).

Columns and labels:
Neuro-2A cells = assay: Neurite outgrowth, type III β-tubulin immunostaining; format: cell-based; details: at concentrations that lower Aβ production, 18 h
Protocol: Immunofluorescence examination of neurite outgrowth: Neuro-2A cells were seeded at 1×105 per glass bottom dishes. After treatment, cells were fixed with 4% paraformaldyde for 10 min, permeabilized with 0.1% Triton X-100, and then blocked with 1% BSA in PBS.
The cells were incubated with monoclonal antibody raised against type III β-tubulin (Sigma) for 1 h followed by Alexa488 conjugated secondary antibody. Neurite morphology was examined under fluorescence microscope. […]

[1] = system: animal models of dementia; design: method as in PMID 19426756, PMID 16226729, PMID 17566650; details: oral administration; cited from earlier work
Aβ42 levels in the brain = assay: In vivo brain Aβ42 level by ELISA after oral dosing; details: 100 mg kg^–1 oral gavage, three times in 2 days, 3–5 month old C57BL/6 mice
Protocol: was performed at least three times. The lowest binding scores were computed and the conformations of the corresponding binding pose presented.
Quantum mechanics/Molecular mechanics. The binding between transmembrane and substrate was further optimized using the QM/MM approach and NWChem software. The quantum part (QM) included TAIII (total 116 atoms), while the rest of the system was modelled as the molecular mechanics (MM) level. The QM region was treated at the DFT level using the B3LYP method. The 6-31G* Pople basis set was employed for all the atoms.
The transmembrane was described with the AMBER parm99 force field. The binding structure was solvated in a cubic box with 6872 classical SPC/E water molecules. Three negative counter ions (Cl-) were added to neutralize the charges in the system. The structure was optimized by performing the BFGS algorithm for the QM part and the steepest descent algorithm for the MM part. The optimization of these two regions (QM and MM) was alternated until self-consistency was reached.
Animal experiments: Male C57BL/6N mice were housed in environmentally controlled room (temperature: 25 ± 2 °C, humidity: 50 ± 5%, 12-h light-dark cycle) in Laboratory Animal Unit, The University of Hong Kong and were freely access to food and water. TAIII, TAI SSG and compound 34 were dissolved in 5% Tween 80 and given to the mice by oral gavage at three repeated doses of 100 mg/kg in 48 hours. Mice were administrated with 5% Tween 80 (control group), TAIII, TAI SSG and 34. The experimental procedures were performed with the approval of Committee of Use of Live Animal for Teaching and Research of The University of Hong Kong. Blood (about 600-800 µL) was collected by cardiac puncture and added with 1/10 volume of Na2EDTA (20 mg/mL) to prevent coagulation. After centrifugation at 3000 g for 15 min at 4 °C, plasma was transferred to a centrifuge tube. […] Both plasma and brain samples were stored at -80 °C until they were analyzed. The Aβ42 levels were determined by Wako High Sensitive Aβx-42 ELISA kit. […]

[2] = system: Aβ40 and Aβ38 in N2A-APPswe cells; assay: Aβ40 and Aβ38 in conditioned medium of N2A-APPswe cells by ELISA; format: cell-based; details: compared with Aβ42
Protocol: Aβ ELISA: Aβ concentrations in conditioned medium were assayed using ELISA kits for […]

purified BACE1 = biological target: T1, purified BACE1 (Homo sapiens, UniProt P56817); assay: β-Secretase assay with purified BACE1; format: biochemical
T1 construct: purchased Millipore
Protocol: mM MES, pH5.5. Protein extracts (10 µg) were incubated with testing compounds or vehicle for 1 h at room temperature. The β-secretase activities were assayed by adding 10 µM fluorogenic β-secretase substrate (Millipore) to the reaction mixtures and the fluorescence (excitation, 380; emission, 460) were measured. β-Secretase assays were also performed using purified BACE1 (Millipore) at 100 ng in a buffer containing 50 mM MES, pH 5.5. […]

T1 sequence (P56817 46-501, species assumed): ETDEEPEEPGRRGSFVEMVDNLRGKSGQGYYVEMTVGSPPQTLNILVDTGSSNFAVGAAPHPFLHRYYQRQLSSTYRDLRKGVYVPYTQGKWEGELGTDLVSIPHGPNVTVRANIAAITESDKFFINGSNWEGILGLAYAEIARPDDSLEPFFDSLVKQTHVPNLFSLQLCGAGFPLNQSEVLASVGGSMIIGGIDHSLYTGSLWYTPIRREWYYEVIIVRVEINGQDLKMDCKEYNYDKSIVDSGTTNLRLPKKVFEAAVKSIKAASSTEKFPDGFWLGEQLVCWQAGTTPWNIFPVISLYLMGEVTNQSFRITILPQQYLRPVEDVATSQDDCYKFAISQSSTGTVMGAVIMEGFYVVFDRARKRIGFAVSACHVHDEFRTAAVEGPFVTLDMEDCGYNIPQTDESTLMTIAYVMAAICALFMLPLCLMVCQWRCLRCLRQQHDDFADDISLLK

SMILES	neurite outgrowth (Neuro-2A cells)	memory dysfunction [1]	reduction of Aβ42 levels in the brain (Aβ42 levels in the brain)	effect on Aβ40 and Aβ38 [2]	activities of purified BACE1 (purified BACE1)
C[C@H]1CC[C@@]2(OC1)O[C@H]1C[C@H]3[C@@H]4CC[C@@H]5C[C@@H](O)CC[C@]5(C)[C@H]4CC[C@]3(C)[C@H]1[C@@H]2C [SSG (1), sarsasapogenin]	markedly stimulated	improve	–	–	–
C[C@H]1CC[C@@]2(OC1)O[C@H]1C[C@H]3[C@@H]4CC[C@@H]5C[C@@H](O[C@@H]6O[C@H](CO)[C@H](O)[C@H](O)[C@H]6O)CC[C@]5(C)[C@H]4CC[C@]3(C)[C@H]1[C@@H]2C [TAI (3), timosaponin A I]	–	–	87% ± 14%	much smaller effect	–
C[C@H]1CC[C@@]2(OC1)O[C@H]1C[C@H]3[C@@H]4CC[C@@H]5C[C@@H](O[C@@H]6O[C@H](CO)[C@H](O)[C@H](O)[C@H]6O[C@@H]6O[C@H](CO)[C@@H](O)[C@H](O)[C@H]6O)CC[C@]5(C)[C@H]4CC[C@]3(C)[C@H]1[C@@H]2C [TAIII (2), timosaponin A III]	–	improve	83% ± 13%	much smaller effect	did not affect
